From article PMC4977651, “Molecular features of biguanides required for targeting of mitochondrial respiratory complex I and activation of AMP-kinase” (BMC Biology, 2016)
Where “and” joins values, the source holds several entries; their conditions need not be identical. Equal entries are not always repeated.

Legend:
143B cells = assay: Membrane potential measurement by TMRM fluorescence; assay type: cell-based, human
Description: 143B cells were seeded at 5 × 10^5 cells per 10 cm^2 well in DMEM containing 10 % FBS. […] The detached cells from each well were incubated in PBS containing 25 pg/mL tetramethylrhodamine, methyl ester (TMRM) and 20 μg/mL Hoescht stain for 20 min at 37 °C then washed twice and re-suspended in 200 μL PBS. TMRM fluorescence was detected using a NucleoCounter® NC 3000 cytometer with excitation at 530 nm and emission at 575 nm, with the Hoescht stain used to check for consistent cell density between samples.

[1] = biological target: isolated bovine heart complex I (Bos taurus, UniProt P03887+P03898+P17694+P42026); assay: NADH:decylubiquinone oxidoreduction by isolated complex I; assay type: biochemical; details: bovine heart purified mitochondrial complex I, read-out: average % (rate, % of no-inhibitor control)
Chain of isolated bovine heart complex I (P42026 38-216): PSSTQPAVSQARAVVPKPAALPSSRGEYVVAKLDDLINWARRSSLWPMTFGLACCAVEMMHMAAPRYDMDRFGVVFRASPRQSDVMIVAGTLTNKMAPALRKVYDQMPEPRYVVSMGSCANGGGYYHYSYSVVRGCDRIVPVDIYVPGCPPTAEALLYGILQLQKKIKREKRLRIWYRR
Chain of isolated bovine heart complex I (P17694 34-463): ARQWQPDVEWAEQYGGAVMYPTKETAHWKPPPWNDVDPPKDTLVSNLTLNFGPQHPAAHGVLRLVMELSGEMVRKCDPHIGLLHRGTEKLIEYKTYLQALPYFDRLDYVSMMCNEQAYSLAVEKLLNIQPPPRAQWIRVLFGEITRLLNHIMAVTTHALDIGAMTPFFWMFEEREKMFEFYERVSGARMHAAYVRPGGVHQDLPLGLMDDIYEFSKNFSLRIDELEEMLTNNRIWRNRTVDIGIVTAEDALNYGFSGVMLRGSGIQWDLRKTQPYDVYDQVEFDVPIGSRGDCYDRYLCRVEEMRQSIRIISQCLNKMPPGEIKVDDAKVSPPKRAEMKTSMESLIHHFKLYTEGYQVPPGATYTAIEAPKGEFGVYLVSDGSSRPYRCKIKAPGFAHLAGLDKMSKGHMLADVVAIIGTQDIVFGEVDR
Chain of isolated bovine heart complex I (P03898 whole entry): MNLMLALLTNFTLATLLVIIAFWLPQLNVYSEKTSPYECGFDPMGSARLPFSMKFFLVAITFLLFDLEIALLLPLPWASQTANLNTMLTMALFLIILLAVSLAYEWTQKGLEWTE
Chain of isolated bovine heart complex I (P03887 whole entry): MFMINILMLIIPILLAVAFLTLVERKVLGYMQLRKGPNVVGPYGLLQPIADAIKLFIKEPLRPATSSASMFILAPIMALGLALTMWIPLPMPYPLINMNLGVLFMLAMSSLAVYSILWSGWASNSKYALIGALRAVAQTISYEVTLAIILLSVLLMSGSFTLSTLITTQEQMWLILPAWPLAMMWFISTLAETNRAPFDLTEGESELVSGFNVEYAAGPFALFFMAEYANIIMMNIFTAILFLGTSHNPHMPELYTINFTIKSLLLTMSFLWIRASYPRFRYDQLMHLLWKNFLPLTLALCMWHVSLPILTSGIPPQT
Description: (§1) Complex I and mitochondrial membranes were prepared from Bos taurus (bovine) heart. Intact mitochondria were isolated from rat liver and mouse heart and liver. Membranes were prepared from mouse heart mitochondria by 5 s bursts of sonication at 4 °C and collected by centrifugation (75,000 × g, 1 h).
(§2) Assays were performed at 32 °C in a SpectraMax 96-well plate reader. NADH:decylubiquinone oxidoreduction by complex I at 0.5 μg mL^−1 was measured in 20 mM Tris-HCl (pH 7.2), 0.15 % soy bean asolectin (Avanti Polar Lipids), and 0.15 % 3-((3-cholamidopropyl)dimethylammonium)-1-propanesulfonate (CHAPS, Merck Chemicals Ltd), with 200 μM decylubiquinone and 200 μM NADH, and monitored using ε340–380(NADH) = 4.81 mM^−1 cm^−1 [23]. Catalysis was initiated by addition of NADH and maximal rates determined by linear regression. NADH:O2 oxidoreduction by membranes was measured similarly but using 5 μg mL^−1 membranes in 10 mM Tris-HCl (pH 7.4) and 250 mM sucrose using 200 μM NADH and supplemented with 0.15 mM horse heart cytochrome c (Sigma-Aldrich Ltd.). Succinate:O2 oxidoreduction was measured using 40 μg mL^−1 membranes in 5 mM succinate in 10 mM Tris-HCl (pH 7.4) as described previously. Control experiments included NaCl (to match the ionic strength) or DMSO, as appropriate.
(§3) Experimental values are reported as mean averages ± standard deviation (SD) of technical replicates for large sample sizes and mean averages ± standard error of the mean (SEM) of technical replicates for small sample sizes. Data were analyzed by the unpaired two-tailed Student’s t test. IC50 values were determined using the standard dose-effect relationship (activity (%) = 100 × IC50 / (IC50 + [inhibitor]^m) with the Hill Slope (m) set to unity for purified complex I) and are reported with 95 % confidence intervals.

[2] = biological target: bovine heart mitochondrial membranes (complex I) (Bos taurus, UniProt P03887+P03898+P17694+P42026); assay: NADH:O2 oxidoreduction by bovine heart mitochondrial membranes (complexes I-III-IV); assay type: biochemical; details: bovine heart mitochondrial membranes, read-out: average % (rate, % of no-inhibitor control)
Chain of bovine heart mitochondrial membranes (complex I) (P42026 38-216): as the sequence (P42026 38-216) above
Chain of bovine heart mitochondrial membranes (complex I) (P17694 34-463): as the sequence (P17694 34-463) above
Chain of bovine heart mitochondrial membranes (complex I) (P03887 whole entry): as the sequence (P03887 whole entry) above
Chain of bovine heart mitochondrial membranes (complex I) (P03898 whole entry): as the sequence (P03898 whole entry) above
Description: as §1, §2, §3

[3] = biological target: mouse heart mitochondrial membranes (complex I) (Mus musculus, UniProt P03888+P03899+Q91WD5+Q9DC70); assay: NADH:O2 oxidoreduction by mouse heart mitochondrial membranes; assay type: biochemical; details: read-out: average % (rate, % of no-inhibitor control)
Chain of mouse heart mitochondrial membranes (complex I) (P03899 whole entry): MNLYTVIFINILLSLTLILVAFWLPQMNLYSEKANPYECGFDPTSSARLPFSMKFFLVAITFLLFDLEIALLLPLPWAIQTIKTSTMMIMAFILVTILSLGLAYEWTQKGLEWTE
Chain of mouse heart mitochondrial membranes (complex I) (P03888 whole entry): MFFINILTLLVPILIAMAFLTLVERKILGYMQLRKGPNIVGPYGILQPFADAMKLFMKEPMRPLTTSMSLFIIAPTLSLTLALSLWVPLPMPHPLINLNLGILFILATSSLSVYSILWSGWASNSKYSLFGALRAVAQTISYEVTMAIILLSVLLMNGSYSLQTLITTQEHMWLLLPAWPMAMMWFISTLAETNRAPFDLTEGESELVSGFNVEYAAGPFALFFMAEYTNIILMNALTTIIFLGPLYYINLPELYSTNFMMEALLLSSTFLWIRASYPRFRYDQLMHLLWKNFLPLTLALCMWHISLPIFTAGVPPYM
Chain of mouse heart mitochondrial membranes (complex I) (Q9DC70 36-224): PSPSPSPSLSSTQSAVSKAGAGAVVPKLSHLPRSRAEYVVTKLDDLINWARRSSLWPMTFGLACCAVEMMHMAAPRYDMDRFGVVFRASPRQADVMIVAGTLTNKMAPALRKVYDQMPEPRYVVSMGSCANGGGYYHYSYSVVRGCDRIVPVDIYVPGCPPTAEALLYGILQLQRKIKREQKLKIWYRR
Chain of mouse heart mitochondrial membranes (complex I) (Q91WD5 34-463): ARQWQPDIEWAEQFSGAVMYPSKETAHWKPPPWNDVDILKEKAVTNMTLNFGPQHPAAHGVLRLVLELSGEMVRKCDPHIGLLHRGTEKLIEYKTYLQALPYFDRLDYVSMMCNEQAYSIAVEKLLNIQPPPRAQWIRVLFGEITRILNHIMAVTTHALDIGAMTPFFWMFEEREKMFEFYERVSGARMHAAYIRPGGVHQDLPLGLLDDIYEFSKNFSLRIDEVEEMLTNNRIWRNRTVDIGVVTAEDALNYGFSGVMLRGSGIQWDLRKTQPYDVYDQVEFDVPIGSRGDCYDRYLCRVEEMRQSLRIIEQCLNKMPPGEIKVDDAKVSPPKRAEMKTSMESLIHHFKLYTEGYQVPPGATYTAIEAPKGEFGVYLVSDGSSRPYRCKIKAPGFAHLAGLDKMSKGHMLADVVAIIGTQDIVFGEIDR
Description: as §1, §2, §3

Compound: N#CC(C#N)=NNc1ccc(OC(F)(F)F)cc1 [FCCP, carbonyl cyanide-4-(trifluoromethoxy)phenylhydrazone]
- TMRM fluorescence, % of the control value (143B cells; after 6.5 h, phenformin at IC50/10 (34 μM), FCCP at 1 μM, n = 3): 13.43 ± 1.7%
- mean-y (TMRM) (143B cells; individual replicates, phenformin 6.5 hours): 1862.7 and 2673.4 and 1873.5
- TMRM average (143B cells; n 3, phenformin 6.5 hours): 2136.53
- TMRM average, % control (143B cells; n 3, phenformin 6.5 hours): 13.43 % control

Compound: N=C(N)N=C(N)Nc1ccccc1 [compound2]
- remaining activity at 50 µM ([1]; inhibitor 0.05 mM): 89%
- remaining activity at 100 µM ([1]; inhibitor 0.10 mM): 82.1%
- remaining activity at 200 µM ([1]; inhibitor 0.20 mM): 70%
- remaining activity at 400 µM ([1]; inhibitor 0.40 mM): 50.6%
- remaining activity at 1000 µM ([1]; inhibitor 1.00 mM): 33.6%
- remaining activity at 2000 µM ([1]; inhibitor 2.00 mM): 17.4%
- remaining activity at 2500 µM ([1]; inhibitor 2.50 mM): 15.2%
- remaining activity at 25 µM ([2]; inhibitor 0.025 mM): 91.2%
- remaining activity at 50 µM ([2]; inhibitor 0.05 mM): 80.9%
- remaining activity at 120 µM ([2]; inhibitor 0.12 mM): 74.7%
- remaining activity at 250 µM ([2]; inhibitor 0.25 mM): 59.3%
- remaining activity at 500 µM ([2]; inhibitor 0.50 mM): 43.6%
- remaining activity at 1250 µM ([2]; inhibitor 1.25 mM): 32%
- remaining activity at 2500 µM ([2]; inhibitor 2.50 mM): 21.2%
- remaining activity at 25 µM ([3]; inhibitor 0.025 mM): 100%
- remaining activity at 50 µM ([3]; inhibitor 0.05 mM): 91.6%
- remaining activity at 130 µM ([3]; inhibitor 0.13 mM): 95.5%
- remaining activity at 250 µM ([3]; inhibitor 0.25 mM): 81.9%
- remaining activity at 500 µM ([3]; inhibitor 0.50 mM): 59.6%
- remaining activity at 1250 µM ([3]; inhibitor 1.25 mM): 40.4%
- remaining activity at 2500 µM ([3]; inhibitor 2.50 mM): 27%
